Reference: PMC7321108, “1-Hydroxyanthraquinones Containing Aryl Substituents as Potent and Selective Anticancer Agents” (Molecules, 2020)

Tests used:
[1] = test system: SNB-19 glioblastoma cells; assay: MTT cytotoxicity assay, SNB-19; format: cell-based; details: Homo sapiens, 72 h incubation, mean ± SEM of three experiments, read-out: Cytotoxicity (GI50) against SNB-19
Description: (§1) The cytotoxicity of the synthesized series of 4-substituted 5, 13–17, 22, 23, 2-substituted 25–30 and 2,4-disubstituted 1-hydroxy-9,10-anthraquinones 33–38, 40–45 was evaluated against a panel of seven different human cancer cell lines (glioblastoma cancer cells, human prostate cancer cells, T-cellular human leucosis, breast cancer cells) and also a normal cell line of hTERT-immortalized lung fibroblasts, using conventional MTT assay. Doxorubicin (DOX) is clinically used to treat cancer as drug in world and have a very wide antitumor spectrum. That we use them as positive control compounds. The cytotoxicity was determined by measuring the concentration inhibiting human tumor cell viability by 50% (GI50).
(§2) The human cancer cells of the glioblastoma (U-87MG, SNB-19, T98G), prostate cancer cell line (LNCAP, DU-145), the cells of T-cellular human leucosis (MT-4) and human breast cancer cells (MDA-MB-231) were used in this study. The cells were cultured in the RPMI-1640 medium that contained 10% embryonic calf serum, L-glutamine (2 mmol/L), gentamicin ([…]) and lincomycin (30 mkg/mL) in a CO2 incubator at 37 °C. The tested compounds were dissolved in DMSO and added to the cellular culture at the required concentrations. Three wells were used for each concentration. The cells which were incubated without the compounds were used as a control. Cells were placed on 96-well microliter plates and cultivated at 37 °C in 5% CO2/95% air for 72 h. The cell viability was assessed through an MTT [3-(4,5-dimethylthiazol-2-yl)-[…]-2H-tetrazolium bromide] conversion assay. A total of 1% MTT was added to each well. Four hours later, DMSO was added and mixed for 15 min. Optical density (D) of the samples was measured on a BioRad 680 multi-well spectrophotometer (USA) at the wavelength of 450 nm. The 50% cytotoxic dose GI50) of each compound (i.e., the compound concentration that causes the death of 50% of cells in a culture, or decreases the optical density twice as compared to the control wells) was calculated from the data obtained. Statistical processing of the results was performed using the Microsoft Excel-2007, […] 6.0 and GraphPad Prism 5.0 programs. The results are given as an average value ± a deviation from the average (mean ± standard error of the mean (SEM)). Reliability of differences (p) was estimated using the Student t test. The differences with p < 0.05 were considered as reliable. The experimental results are given as the data average values obtained from three independently conducted experiments.

[2] = test system: U-87MG glioblastoma cells; assay: MTT cytotoxicity assay, U-87MG; format: cell-based; details: Homo sapiens, 72 h incubation, mean ± SEM of three experiments, read-out: Cytotoxicity (GI50) against U-87MG
Description: as §1, §2

[3] = test system: T98G glioblastoma cells; assay: MTT cytotoxicity assay, T98G; format: cell-based; details: Homo sapiens, 72 h incubation, mean ± SEM of three experiments, read-out: Cytotoxicity (GI50) against T98G
Description: as §1, §2

[4] = test system: LNCAP prostate cancer cells; assay: MTT cytotoxicity assay, LNCAP; format: cell-based, human; details: Homo sapiens, LNCaP, 72 h, 72 h incubation, mean ± SEM of three experiments, read-out: Cytotoxicity (GI50) against LNCAP
Description: as §1, §2

[5] = test system: DU-145 prostate cancer cells; assay: MTT cytotoxicity assay, DU-145; format: cell-based, human; details: Homo sapiens, DU-145, 72 h, 72 h incubation, mean ± SEM of three experiments, read-out: Cytotoxicity (GI50) against DU-145
Description: as §1, §2

[6] = test system: MT-4 cells of T-cellular human leucosis; assay: MTT cytotoxicity assay, MT-4; format: cell-based; details: MT4, 72 h incubation, mean ± SEM of three experiments, read-out: Cytotoxicity (GI50) against MT-4
Description: as §1, §2

[7] = test system: MDA-MB-231 breast cancer cells; assay: MTT cytotoxicity assay, MDA-MB-231; format: cell-based; details: Homo sapiens, 72 h incubation, mean ± SEM of three experiments, read-out: Cytotoxicity (GI50) against MDA-MB-231
Description: as §1, §2

[8] = MTT cytotoxicity assay, normal hTERT-immortalized lung fibroblasts; format: cell-based; details: human, hTERT-immortalized lung fibroblasts (normal cell line), 72 h incubation, mean ± SEM of three experiments, read-out: Cytotoxicity (GI50) against hTERT Lung Fibroblasts
Description: as §1, §2

| Structure (SMILES) | melting point | GI50 [1] | GI50 [2] | GI50 [3] | GI50 [4] | GI50 [5] | GI50 [6] | GI50 [7] | GI50 at 72 h [8] |
| --- | --- | --- | --- | --- | --- | --- | --- | --- | --- |
| COc1cc(-c2ccc(O)c3c2C(=O)c2ccccc2C3=O)cc(OC)c1OC [Compound 5, 1-Hydroxy-4-(3,4,5-trimethoxyphenyl)anthracene-9,10-dione] | 230.5 °C (dec.) | 6.7 ± 0.47 µM | > 100 µM | 72.5 ± 3.21 µM | 21.1 ± 0.85 µM | 14.8 ± 0.52 µM | 42 ± 4.14 µM | 28.6 ± 1.24 µM | 28.6 ± 4.54 µM |
| Cc1ccccc1-c1ccc(O)c2c1C(=O)c1ccccc1C2=O [Compound 14, 1-Hydroxy-4-(o-tolyl)anthracene-9,10-dione] | – | 38.1 ± 1.15 µM | > 100 µM | > 100 µM | 92 ± 3.93 µM | 41.1 ± 3.34 µM | 65 ± 5.49 µM | > 100 µM | > 100 µM |
| O=C1c2ccccc2C(=O)c2c(-c3cc(F)cc(F)c3)ccc(O)c21 [Compound 17, 1-(3,5-Difluorophenyl)-4-hydroxyanthracene-9,10-dione] | 214.2 to 214.3 °C | 10.2 ± 0.86 µM | 8.2 ± 1.35 µM | 9.2 ± 0.56 µM | 16.7 ± 1.34 µM | 3.5 ± 0.96 µM | 38.3 ± 3.16 µM | 9.6 ± 0.69 µM | 26.6 ± 2.44 µM |
| O=C1c2ccccc2C(=O)c2c(-c3cc(C(F)(F)F)ccc3Cl)ccc(O)c21 [Compound 18, 1-(2-Chloro-5-(trifluoromethyl)phenyl)-4-hydroxyanthracene-9,10-dione] | 184.3 °C (dec.) | – | – | – | – | – | – | – | – |
| O=C1c2ccccc2C(=O)c2c(-c3ccc(Cl)cc3C(F)(F)F)ccc(O)c21 [Compound 19, 1-(4-Chloro-2-(trifluoromethyl)phenyl)-4-hydroxyanthracene-9,10-dione] | 186 °C (dec.) | – | – | – | – | – | – | – | – |

Now from value to compound, other results behind:

| melting point | Structure (SMILES) | GI50 [1] | GI50 [2] | GI50 [3] | GI50 [4] | GI50 [5] | GI50 [6] | GI50 [7] | GI50 at 72 h [8] |
| --- | --- | --- | --- | --- | --- | --- | --- | --- | --- |
| 141.8 °C (dec.) | O=C1c2ccccc2C(=O)c2c(-c3ccco3)ccc(O)c21 [Compound 22, 1-(Furan-2-yl)-4-hydroxyanthracene-9,10-dione] | > 100 µM | > 100 µM | > 100 µM | 21.1 ± 0.85 µM | 24.2 ± 1.32 µM | > 100 µM | > 100 µM | 52.2 ± 8.01 µM |
| 190.1 °C (dec.) | COc1cc(-c2ccc3c(c2O)C(=O)c2ccccc2C3=O)cc(OC)c1OC [Compound 24, 1-Hydroxy-2-(3,4,5-trimethoxyphenyl)anthracene-9,10-dione] | – | – | – | – | – | – | – | – |
| 148.5 °C (dec.) | Cc1ccccc1-c1ccc2c(c1O)C(=O)c1ccccc1C2=O [Compound 26, 1-Hydroxy-2-(o-tolyl)anthracene-9,10-dione] | > 100 µM | > 100 µM | > 100 µM | 74 ± 3.74 µM | 70.2 ± 1.47 µM | 80 ± 5.21 µM | > 100 µM | 87.5 ± 9.11 µM |
| 264.3 °C (dec.) | O=C1c2ccccc2C(=O)c2c1ccc(-c1cc(F)cc(F)c1)c2O [Compound 29, 2-(3,5-Difluorophenyl)-1-hydroxyanthracene-9,10-dione] | 15.3 ± 0.71 µM | 34.1 ± 2.18 µM | 29.6 ± 2.21 µM | 36.2 ± 2.05 µM | 13.8 ± 1.05 µM | 36.6 ± 1.68 µM | 35.2 ± 1.88 µM | 28.1 ± 2.12 µM |
